The text below walks through data of ChEMBL document CHEMBL4190283, “Pharmacological characterization and binding modes of novel racemic and optically active phenylalanine-based antagonists of AMPA receptors” (Eur J Med Chem, 2017).

The nature of assay [1]: Displacement of [3H]AMPA from AMPA receptor in rat brain membranes by scintillation counting method. The format is cell membranes, Membrane.
Assay [2] is described as follows: Displacement of [3H]KA from KA receptor in rat brain membranes by scintillation counting method. Type of assay: cell membranes, Membrane.
Assay [3] addresses Glutamate NMDA receptor. In words: Displacement of [3H]CGP39653 from NMDA receptor in rat brain membranes by scintillation counting method. The format is cell membranes, Membrane.
The target of assay [4] is T1, Glutamate receptor 2 (Rattus norvegicus, UniProt P19491). Nature of the assay: Displacement of [3H]AMPA from rat GluA2(R) receptor flip isoform expressed in sf9 insect cell membranes by TopCount method. A general note: Loss of bound radioactivity is the signal in a displacement assay; it reports binding, not function.
T1 sequence (P19491 whole entry, canonical isoform): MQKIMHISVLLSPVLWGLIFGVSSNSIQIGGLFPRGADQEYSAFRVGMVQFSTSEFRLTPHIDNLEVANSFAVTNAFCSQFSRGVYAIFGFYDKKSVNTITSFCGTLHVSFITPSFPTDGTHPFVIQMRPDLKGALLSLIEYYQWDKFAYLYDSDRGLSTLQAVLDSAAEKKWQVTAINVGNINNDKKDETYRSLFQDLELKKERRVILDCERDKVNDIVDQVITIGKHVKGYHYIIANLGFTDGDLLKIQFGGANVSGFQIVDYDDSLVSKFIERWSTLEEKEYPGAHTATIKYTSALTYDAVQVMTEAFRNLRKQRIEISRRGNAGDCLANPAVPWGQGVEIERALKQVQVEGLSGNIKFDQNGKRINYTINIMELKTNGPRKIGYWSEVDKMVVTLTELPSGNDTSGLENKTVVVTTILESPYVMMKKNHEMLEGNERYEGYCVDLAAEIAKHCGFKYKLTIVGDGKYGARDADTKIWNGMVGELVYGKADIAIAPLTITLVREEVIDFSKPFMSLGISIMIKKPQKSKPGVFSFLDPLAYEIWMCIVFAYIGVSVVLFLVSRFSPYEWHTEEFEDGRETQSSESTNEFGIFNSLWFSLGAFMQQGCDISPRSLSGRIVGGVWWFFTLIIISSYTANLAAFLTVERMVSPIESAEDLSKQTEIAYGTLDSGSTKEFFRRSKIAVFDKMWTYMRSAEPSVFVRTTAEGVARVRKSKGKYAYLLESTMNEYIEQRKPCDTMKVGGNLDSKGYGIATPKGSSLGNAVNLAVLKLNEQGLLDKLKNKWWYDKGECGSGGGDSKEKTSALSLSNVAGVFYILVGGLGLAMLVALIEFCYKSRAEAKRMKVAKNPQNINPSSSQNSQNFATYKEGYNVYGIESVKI
Assay [5] has as its target Glutamate receptor 3 (Rattus norvegicus, UniProt P19492). Nature of the assay: Displacement of [3H]AMPA from rat GluA3 receptor flip isoform expressed in sf9 insect cell membranes by TopCount method.
Assay [6] can be described thus: Displacement of [3H]AMPA from AMPA receptor in rat brain membranes. The format is cell membranes, Membrane.
Assay [7] concerns the target Glutamate receptor 2 (Rattus norvegicus) (UniProt P19491). Nature of the assay: Antagonist activity at rat GluA2(Q) receptor flop isoform expressed in Xenopus laevis oocytes assessed as inhibition of (S)-glutamate-induced channel activation by two electrode voltage clamp method. Type of assay: cell-based.
For assay [8], the target named is T1, Glutamate receptor 2. In words: Displacement of [3H]AMPA from rat GluA2(Q) receptor flop isoform by TopCount method.
Assay [9] concerns the target Glutamate receptor 2 (Rattus norvegicus) (UniProt P19491). In words: Agonist activity at rat GluA2(Q) receptor flop isoform expressed in Xenopus laevis oocytes at 300 uM by two electrode voltage clamp method. The format is cell-based.
For assay [10], the species on record is Rattus norvegicus. Nature of the assay: Selectivity ratio of Ki for rat GluA3 receptor flip isoform expressed in sf9 insect cell membranes to Ki for rat GluA2(R) receptor flip isoform expressed in sf9 insect cell membranes.

The structures appear in SMILES notation. Calls of active or inactive are those of the source. No cut-off for these calls is given here.

Chain of Glutamate receptor 2 (Rattus norvegicus) (P19491 whole entry, canonical isoform): as above
Chain of Glutamate receptor 3 (P19492 whole entry, canonical isoform): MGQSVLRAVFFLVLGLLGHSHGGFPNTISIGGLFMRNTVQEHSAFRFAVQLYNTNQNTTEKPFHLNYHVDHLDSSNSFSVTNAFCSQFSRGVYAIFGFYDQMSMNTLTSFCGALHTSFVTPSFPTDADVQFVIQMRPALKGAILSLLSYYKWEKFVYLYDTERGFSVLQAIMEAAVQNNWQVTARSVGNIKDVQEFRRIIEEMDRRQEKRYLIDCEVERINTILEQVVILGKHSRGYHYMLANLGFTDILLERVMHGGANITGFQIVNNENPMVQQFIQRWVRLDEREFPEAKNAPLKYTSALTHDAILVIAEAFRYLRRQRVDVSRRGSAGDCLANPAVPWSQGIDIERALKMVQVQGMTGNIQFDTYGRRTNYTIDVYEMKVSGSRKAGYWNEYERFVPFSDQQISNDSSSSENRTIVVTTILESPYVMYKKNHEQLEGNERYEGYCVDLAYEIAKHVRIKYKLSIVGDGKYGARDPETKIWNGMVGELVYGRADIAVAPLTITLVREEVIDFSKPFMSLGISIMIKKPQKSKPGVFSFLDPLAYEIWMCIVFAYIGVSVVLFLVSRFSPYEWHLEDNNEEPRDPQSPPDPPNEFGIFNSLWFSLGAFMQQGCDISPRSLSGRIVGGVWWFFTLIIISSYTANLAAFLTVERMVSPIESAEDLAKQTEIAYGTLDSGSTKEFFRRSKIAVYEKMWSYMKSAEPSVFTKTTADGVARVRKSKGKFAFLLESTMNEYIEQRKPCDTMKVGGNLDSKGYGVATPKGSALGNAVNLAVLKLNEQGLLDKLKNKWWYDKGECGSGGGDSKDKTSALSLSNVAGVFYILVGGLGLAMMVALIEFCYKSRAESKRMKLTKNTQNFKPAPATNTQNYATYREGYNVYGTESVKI

What is called Ki is the dissociation constant of the complex between target and ligand, obtained from inhibition or displacement. Lower therefore signals a stronger hold on the target. A word on the pKi: it is the negative decadic logarithm of the Ki, by convention in mol/L. As to `NC(Cc1cc(-c2cc(O)ccc2O)c(Cl)c([N+](=O)[O-])c1)C(=O)O` (racemic), the Ki in assay [1] is 0.92 µM; in assay [2], 15 µM; in assay [3], greater than 100 µM. The pKi in assay [1] was 6.04; in [2] it was 4.83.

Turning to `NC(Cc1cc(-c2cccc(O)c2)c(Cl)c([N+](=O)[O-])c1)C(=O)O` (racemic), the results for the inhibition constant Ki in assay [1], in [2] and in assay [3] were 3.1 µM, greater than 100 µM and greater than 100 µM, respectively. The same molecule returned a negative logarithm of the Ki (pKi) in [1] of 5.52.

Take `N[C@H](Cc1cc(Cl)cc(-c2cccc(O)c2)c1)C(=O)O`: the results for the Ki in assay [4] and in assay [5] were 20.7 µM and greater than 100 µM, respectively.

As to `NC(Cc1cc(-c2ccc(O)cc2)cc([N+](=O)[O-])c1)C(=O)O` (racemic), the inhibitory constant (Ki) in [1] was 21 µM; in [2], greater than 100 µM; in assay [3] it was greater than 100 µM. In [1], this molecule yielded a pKi of 4.68.

`Nc1c(-c2cccc(O)c2)cc(CC(N)C(=O)O)cc1[N+](=O)[O-]` (racemic): the results for the Ki in assay [1], in assay [2] and in assay [3] were 14 µM, greater than 100 µM and greater than 100 µM, respectively. In [1], this molecule showed a pKi of 4.84.

For `N[C@H](Cc1ccc(Cl)c(-c2cccc(O)c2)c1)C(=O)O`, the inhibition constant Ki in [4] was 21.9 µM; in assay [5], greater than 100 µM.

Turning to `N[C@@H](Cc1ccc(Cl)c(-c2cccc(O)c2)c1)C(=O)O`, the Ki in assay [4] and in [5] was greater than 100 µM each time.

As for `NC(Cc1cc(Cl)c(O)c(-c2cccc(O)c2)c1)C(=O)O` (racemic), the inhibitory constant (Ki) was 7.9 µM in [1], greater than 100 µM in [2] and greater than 100 µM in [3]. For the same molecule, the negative logarithm of the Ki (pKi) in [1] was found to be 5.1.

Take `NC(Cc1ccc(Cl)c(-c2ccc(O)cc2)c1)C(=O)O` (racemic): the inhibitory constant (Ki) is 65 µM in assay [1], greater than 100 µM in assay [2] and greater than 100 µM in [3]. In assay [1], this molecule returned a negative logarithm of the Ki (pKi) of 4.19.

Turning to `NC(Cc1cc(-c2cncc(O)c2)c(Cl)c([N+](=O)[O-])c1)C(=O)O` (racemic), the figures for the Ki in [1], in [2] and in assay [3] were 2 µM, greater than 100 µM and greater than 100 µM, respectively. Besides, the pKi in assay [1] came out at 5.7.

For the molecule `NC(Cc1cccc(-c2cccc(O)c2)c1)C(=O)O` (racemic), the inhibitory constant (Ki) in [2] was greater than 100 µM.

For `Nc1c(Cl)cc(CC(N)C(=O)O)cc1-c1cccc(O)c1` (racemic), the inhibition constant (Ki) was 10 µM in [1], greater than 100 µM in assay [2] and greater than 100 µM in assay [3]. The negative logarithm of the Ki (pKi) in [1] turned out to be 4.99.

Consider `N[C@@H](Cc1cc(-c2cc(O)ccc2O)c(Cl)c([N+](=O)[O-])c1)C(=O)O`, for which the Ki in assay [4] was 18.4 µM; in [5], greater than 100 µM.

Regarding `CC(C)(C)c1onc(OCP(=O)(O)O)c1C[C@H](N)C(=O)O`, the inhibition constant (Ki) was 16 µM in assay [6] and greater than 100 µM in assay [2].

`NC(Cc1cc(Cl)c(Cl)c(-c2cncc(O)c2)c1)C(=O)O` (racemic) had an inhibition constant (Ki) in assay [2] greater than 100 µM.

As to `COc1c(Cl)cc(CC(N)C(=O)O)cc1-c1cccc(O)c1` (racemic), the Ki in assay [1], in assay [2] and in [3] was greater than 100 µM in each case.

A word on the Kb: it is the equilibrium dissociation constant of an antagonist, usually derived from a functional assay. For `N[C@H](Cc1cc(-c2cc(O)ccc2O)c(Cl)c([N+](=O)[O-])c1)C(=O)O`, the Ki in assay [4] worked out at 1.71 µM; in assay [5], 7.01 µM; in assay [8] it was 1740 nM. Moreover, the Kb in assay [7] stood at 2130 nM. For the same molecule, in assay [7], the inhibition entry is “Dose-dependent effect”. Also, the outcome in assay [9] was inactive. In addition, in assay [10], the Ratio Ki is 4.

The molecule `NC(Cc1cc(Cl)c(Cl)c(-c2cccc(O)c2)c1)C(=O)O` (racemic) had an inhibition constant (Ki) in assay [2] greater than 100 µM.

Take `NC(Cc1cc(-c2cc(O)cc(F)c2)c(Cl)c([N+](=O)[O-])c1)C(=O)O` (racemic): the Ki in assay [1] was 3.4 µM; in assay [2], 26 µM; in [3] it was greater than 100 µM. Also, the results for the pKi in assay [1] and in assay [2] were 5.47 and 4.58, respectively.

As to `NC(Cc1ccc([N+](=O)[O-])c(-c2ccc(O)cc2)c1)C(=O)O` (racemic), the Ki in assay [1] was 64 µM; in [2], greater than 100 µM; in [3], greater than 100 µM. The molecule further showed a pKi in assay [1] of 4.2.

Take `NC(Cc1ccc(Cl)c(-c2cccc(O)c2)c1)C(=O)O` (racemic): the Ki was 9.2 µM in assay [1], greater than 100 µM in assay [2] and greater than 100 µM in assay [3]. For the same molecule, in [1], the pKi worked out at 5.04.

On to `N[C@@H](Cc1cc(Cl)cc(-c2cccc(O)c2)c1)C(=O)O`, for which the Ki was 40.8 µM in assay [4] and greater than 100 µM in assay [5].

For the molecule `Nc1ccc(CC(N)C(=O)O)cc1-c1cccc(O)c1` (racemic), the Ki in assay [1] is 9.1 µM; in assay [2], greater than 100 µM; in assay [3] it was greater than 100 µM. This molecule also returned a negative-log Ki (pKi) in assay [1] of 5.05.

As for `NC(Cc1cc(-c2ccc(O)cc2)c(Cl)c([N+](=O)[O-])c1)C(=O)O` (racemic), the Ki in [1] was 23 µM; in [2], greater than 100 µM; in [3], greater than 100 µM. In assay [1], the negative logarithm of the Ki (pKi) is 4.66.

Consider `NC(Cc1ccc([N+](=O)[O-])c(-c2cccc(O)c2)c1)C(=O)O` (racemic), for which the Ki in [1] was 21 µM; in assay [2] it was greater than 100 µM; in [3] it was greater than 100 µM. Further, in assay [1], the negative-log Ki (pKi) is recorded as 4.67.

Consider `NC(Cc1cc(Cl)cc(-c2cccc(O)c2)c1)C(=O)O` (racemic), for which the Ki is 9.3 µM in [1], greater than 100 µM in assay [2] and greater than 100 µM in assay [3]. Also, the pKi in [1] worked out at 5.06.

Take `NC(Cc1cc(-c2cccc(O)c2)cc([N+](=O)[O-])c1)C(=O)O` (racemic): the Ki in assay [1] was 8.2 µM; in assay [2], greater than 100 µM; in [3], greater than 100 µM. Besides, in [1], the negative logarithm of the Ki (pKi) came out at 5.09.

As for `NC(Cc1cc(Cl)cc(-c2ccc(O)cc2)c1)C(=O)O` (racemic), the figures for the Ki in assay [1], in assay [2] and in assay [3] were 46 µM, greater than 100 µM and greater than 100 µM, respectively. The same molecule showed a pKi in assay [1] of 4.34.
